Experimental data reported in PubChem BioAssay (NCI).
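Compound exposure: 48 hours, 5 concentrations, 96-well plates. GI50 is the concentration that inhibits growth by half. TGI: total growth inhibition.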

What was measured:
Experiment in all cases: inhibition of tumour cell growth, NCI panel, 48 h
MDA-MB-231 breast = system: MDA-MB-231 breast
NCI-H522 lung = system: NCI-H522 lung
M14 melanoma = system: M14 melanoma
OVCAR-4 ovarian = system: OVCAR-4 ovarian
786-0 renal = system: 786-0 renal
SW-620 colon = system: SW-620 colon
LOX IMVI melanoma = system: LOX IMVI melanoma
UACC-257 melanoma = system: UACC-257 melanoma
UO-31 renal = system: UO-31 renal
SNB-19 CNS = system: SNB-19 CNS

Structure (SMILES)	GI50 (MDA-MB-231 breast) [µM]	TGI (MDA-MB-231 breast) [µM]	GI50 (NCI-H522 lung) [µM]	TGI (NCI-H522 lung) [µM]	GI50 (M14 melanoma) [µM]	TGI (M14 melanoma) [µM]	GI50 (OVCAR-4 ovarian) [µM]	TGI (OVCAR-4 ovarian) [µM]	GI50 (786-0 renal) [µM]	TGI (786-0 renal) [µM]	GI50 (SW-620 colon) [µM]	TGI (SW-620 colon) [µM]	GI50 (LOX IMVI melanoma) [µM]	TGI (LOX IMVI melanoma) [µM]	GI50 (UACC-257 melanoma) [µM]	TGI (UACC-257 melanoma) [µM]	GI50 (UO-31 renal) [µM]	TGI (UO-31 renal) [µM]	GI50 (SNB-19 CNS) [µM]	TGI (SNB-19 CNS) [µM]
O=C1c2cccnc2C(=O)c2c1c(C(=O)OCCCN1CCCCC1)c1ccccn21	0.717	13.9	< 0.01	< 0.0156	< 0.01	0.0384	0.28	2	< 0.01	< 0.01	< 0.01	< 0.0192	< 0.01	< 0.01	< 0.01	0.0549	< 0.01	< 0.01	< 0.01	1.83
O=C(O)c1c(Br)c(Br)c(Br)c(Br)c1C1c2ccc(O)cc2Oc2cc(O)ccc21		> 100		> 100		> 100		> 100		> 100		> 100		> 100		> 100		> 100		> 100
CC(=O)/C=C/c1ccc(OCc2ccc(Cl)cc2)cc1	629	> 1000	295	> 1000	559	> 1000	648	> 1000	718	> 1000	> 1000	> 1000	343	> 1000	274	> 1000	556	> 1000	> 1000	> 1000
COc1cc(Cl)cc(-c2nn(-c3cccc(NC(=O)Nc4ccc(Cl)c(Cl)c4)c3)cc2-c2ccncc2)c1	1.87	4.52	1.29	4.48	2.52	10.9	2.85	53.8	2.31	7.84	3.43	> 100	2.91	12.4	1.84	5.19	1.89	18.2	3.51	> 100
CC1OC(CC(=O)O)CC2=C1C(=O)c1c(O)cccc1C2=O (stereo not given)		0.707		< 0.0251		0.389		0.742		0.336		0.207		0.111		0.228		1.07		2.98
Cc1nc2cc(Nc3nc(Nc4ccc(F)cc4)nc(N4CCOCC4)n3)ccc2n1Cc1ccccc1	3.36	14.7	4.1	18.9	3.16	8.59	4.47	41.8	1.69	3.33	3.97	30.8	4.3	20.7	2.11	4.42	3.24	14.6	5.72	> 100
CN(C)c1cccc(F)c1C(=O)NC(=O)Nc1ccc(Cl)cc1		> 72.1		5.77		> 100		> 100		> 100		> 100		> 100		> 100		> 100		> 100
CC1=Nc2c([nH]c(=S)[nH]c2=O)NC(c2c(Cl)cccc2Cl)C1 (stereo not given)		1.87		7.33		6.47		9.09		1.76		2.05		1.84		9.4		10.2		6.37
Cc1[nH]c2cc(F)ccc2c1-c1nc2c3cccnc3c3ncccc3c2[nH]1	0.409	2.4	0.391	1.46	0.187	0.667	0.0438	1.23	0.243	0.973	0.282	1.84	0.0472	0.697	0.228	0.833	0.266	0.929	0.257	3.87
C/C(=N\NC(=S)N1CCCCCC1)c1cccc2cccnc12		> 79		> 100		14		> 21.4		> 86.9		> 100		27.1		> 31.1		> 44.2		> 44.2
COc1cc(C)c2sc3ccccc3c(=O)c2c1NCCN(C)C	3.48	15.9	4.91	17.9	2.16	4.33	8.08	20.9	8.34	22.2	3.39	14.5	3.66	13.1	2.06	3.97	3.46	16.1	12.9	27.2
COc1ccc(C(=O)c2sc3nc(-c4cccs4)ccc3c2N)cc1OC	2.96	29.6	2.86	95.8	4.27	> 100	6.75	> 100	62.4	> 100	5.07	> 100	6.73	> 100	8.51	> 100	4.56	> 100	> 100	> 100
COCCOCCOCc1n(Cc2ccc3ccccc3n2)c2ccccc2[n+]1Cc1ccc2ccccc2n1	1.02	9.58	0.415	11.1	1.56	12.8	0.373	13.3	3.74	15.5	2.03	17.2	1.14	10.4	0.277	3.73	12.1	36.2	0.444	13.5
